Assay results reported in US7659401B2, “Thiazolo[4,5-C]pyridine derivatives” (Hoffmann-La Roche Inc., priority 2005, dated 2010).
pKi: −log10 of the molar value.

Target: T1, human mGlu 5a receptor (Homo sapiens, UniProt P41594)
T1 construct: expressed in transfected cells; host or cells: EBNA cells (transient transfection); cell membrane homogenates
Assay: [3H]MPEP competition binding on membranes of EBNA cells transiently transfected with human mGlu 5a receptor
Conditions: displacement of [3H]MPEP (2 nM), 1 h at 4° C., Ki=IC50/[1+L/Kd]
Description: The pharmacological activity of the compounds was tested using the following method: For binding experiments, cDNA encoding human mGlu 5a receptor was transiently transfected into EBNA cells using a procedure described by Schlaeger and Christensen [Cytotechnology 15:1-13 (1998)]. Cell membrane homogenates were stored at −80° C. until the day of assay where upon they were thawed and resuspended and polytronised in 15 mM Tris-HCl, 120 mM NaCl, 100 mM KCl, 25 mM CaCl2, 25 mM MgCl2 binding buffer at pH 7.4 to a final assay concentration of 20 μg protein/well.
Saturation isotherms were determined by addition of twelve [^3H]MPEP concentrations (0.04-100 nM) to these membranes (in a total volume of 200 μL) for 1 h at 4° C. Competition experiments were performed with a fixed concentration of [^3H]MPEP (2 nM) and IC50 values of test compounds evaluated using 11 concentrations (0.3-10,000 nM). Incubations were performed for 1 h at 4° C.
At the end of the incubation, membranes were filtered onto unifilter (96-well white microplate with bonded GF/C filter preincubated 1 h in 0.1% PEI in wash buffer, Packard Bio-Science, Meriden, Conn.) with a Filtermate 96 harvester (Packard BioScience) and washed 3 times with cold 50 mM Tris-HCl, pH 7.4 buffer. Nonspecific binding was measured in the presence of 10 μM MPEP. The radioactivity on the filter was counted (3 min) on a Packard Top-count microplate scintillation counter with quenching correction after addition of 45 μl of microscint 40 (Canberra Packard S.A., Zürich, Switzerland) and shaking for 20 min.
For binding experiments the Ki values of the compounds tested are given. The Ki value is defined by the following formula: Ki=IC50/[1+L/Kd] in which the IC50 values are those concentrations of the compounds tested which cause 50% inhibition of the competing radioligand ([^3H]MPEP). L is the concentration of radioligand used in the binding experiment and the Kd value of the radioligand is empirically determined for each batch of membranes prepared.

T1 sequence (P41594 21-1180 isoform P41594-2 limits assumed): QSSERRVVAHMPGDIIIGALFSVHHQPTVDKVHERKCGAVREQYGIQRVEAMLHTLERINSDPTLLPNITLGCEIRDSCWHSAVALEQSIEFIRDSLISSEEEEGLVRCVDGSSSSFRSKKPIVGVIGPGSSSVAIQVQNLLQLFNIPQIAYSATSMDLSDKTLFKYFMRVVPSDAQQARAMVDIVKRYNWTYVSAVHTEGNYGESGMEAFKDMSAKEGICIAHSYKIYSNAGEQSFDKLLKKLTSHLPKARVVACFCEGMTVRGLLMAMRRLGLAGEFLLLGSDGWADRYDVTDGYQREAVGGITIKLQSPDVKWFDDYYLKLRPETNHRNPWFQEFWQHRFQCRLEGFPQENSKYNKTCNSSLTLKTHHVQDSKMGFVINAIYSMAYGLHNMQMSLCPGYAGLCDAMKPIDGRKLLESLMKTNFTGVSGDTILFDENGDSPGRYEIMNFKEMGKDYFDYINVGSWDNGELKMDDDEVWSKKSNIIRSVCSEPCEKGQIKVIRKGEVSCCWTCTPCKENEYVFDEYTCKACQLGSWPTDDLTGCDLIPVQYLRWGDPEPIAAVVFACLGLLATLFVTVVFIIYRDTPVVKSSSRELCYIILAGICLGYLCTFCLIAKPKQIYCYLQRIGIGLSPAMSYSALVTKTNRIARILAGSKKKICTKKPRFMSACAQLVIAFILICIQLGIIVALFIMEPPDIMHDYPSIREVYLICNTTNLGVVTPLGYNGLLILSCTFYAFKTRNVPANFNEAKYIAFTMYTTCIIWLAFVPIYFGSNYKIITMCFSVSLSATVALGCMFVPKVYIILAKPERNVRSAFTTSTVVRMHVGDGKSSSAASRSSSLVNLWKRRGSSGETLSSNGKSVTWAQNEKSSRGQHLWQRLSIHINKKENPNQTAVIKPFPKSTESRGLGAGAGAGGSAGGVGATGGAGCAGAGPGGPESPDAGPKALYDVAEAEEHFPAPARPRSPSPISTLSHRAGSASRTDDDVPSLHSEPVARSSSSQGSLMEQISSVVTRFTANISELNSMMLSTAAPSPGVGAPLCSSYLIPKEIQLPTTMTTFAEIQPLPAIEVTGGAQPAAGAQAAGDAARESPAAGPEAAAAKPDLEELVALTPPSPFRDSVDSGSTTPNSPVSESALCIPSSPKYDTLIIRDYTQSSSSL

pKi | SMILES
7.54 | Cc1csc(Nc2ncc(-c3cc(F)cc(F)c3)c3sc(C)nc23)n1 [Example 19, [7-(3,5-Difluoro-phenyl)-2-methyl-thiazolo[4,5-c]pyridin-4-yl]-(4-methyl-thiazol-2-yl)-amine]
7.35 | Cc1nc(Nc2ncc(-c3ccnc(Cl)c3)c3sc(C)nc23)cs1 [Example 14, [7-(2-Chloro-pyridin-4-yl)-2-methyl-thiazolo[4,5-c]pyridin-4-yl]-(2-methyl-thiazol-4-yl)-amine]
7.43 | Cc1nc(Nc2ncc(-c3cccnc3)c3sc(C)nc23)cs1 [Example 2, (2-Methyl-7-pyridin-3-yl-thiazolo[4,5-c]pyridin-4-yl)-(2-methyl-thiazol-4-yl)-amine]
6.78 | Cc1nc2c(Nc3ccn(C)n3)ncc(-c3cccnc3)c2s1 [Example 5]
7.40 | Cc1nc2c(Nc3ccc(F)cn3)ncc(-c3cccnc3)c2s1 [Example 4]
7.59 | Cc1nc2c(Nc3cccc(Cl)c3)nccc2s1 [Example 1]
7.21 | Cc1csc(Nc2ncc(-c3cncnc3)c3sc(C)nc23)n1 [Example 9]
7.06 | Cc1ccc(Nc2ncc(-c3cncc(F)c3)c3sc(C)nc23)nc1 [Example 20, [7-(5-Fluoro-pyridin-3-yl)-2-methyl-thiazolo[4,5-c]pyridin-4-yl]-(5-methyl-pyridin-2-yl)-amine]
7.38 | Cc1csc(Nc2ncc(-c3cccnc3)c3sc(C)nc23)n1 [Example 3, (2-Methyl-7-pyridin-3-yl-thiazolo[4,5-c]pyridin-4-yl)-(4-methyl-thiazol-2-yl)-amine]
6.89 | Cc1nccc(Nc2ncc(-c3cccc(S(C)(=O)=O)c3)c3sc(C)nc23)n1 [Example 17, [7-(3-Methanesulfonyl-phenyl)-2-methyl-thiazolo[4,5-c]pyridin-4-yl]-(2-methyl-pyrimidin-4-yl)-amine]
